Assay results from patent publication US7939558B2, “Compounds having activity in increasing ion transport by mutant-CFTR and uses thereof” (The Regents of the University of California, priority 2004, dated 2011).

What was measured:
intracellular cAMP = test: cAMP enzymatic immunoassay of FRT cell lysates; assay type: cell-based, rat; settings: compounds 2 μM, 10 minutes, forskolin 0.5 μM
Experimental: cAMP activity was measured using the BIOTRAK enzymatic immunoassay (Amersham) of FRT cell lysates after incubation with the compounds for 10 minutes in the presence of 0.5 μM forskolin.
(§1) An analysis of compound specificity was also performed.

[1] = system: UTP/calcium activated Cl− channel; test: UTP/calcium activated Cl− current, short circuit current in human bronchial epithelial cells; assay type: cell-based; settings: pretreatment 2 μM, apical UTP
Experimental: as §1

ΔF508-CFTR [2] = target: T1, ΔF508-CFTR (Homo sapiens, UniProt P13569, DEL508-508); test: Fluorescence (YFP-H148Q/I152L) I− influx assay of ΔF508-CFTR potentiator activity in FRT cells; assay type: cell-based; design: expressed in transfected cells; settings: 27° C. 24 h, forskolin 20 μM, read-out: Ka
T1 sequence (P13569 with tags, fused parts or gaps DEL508-508): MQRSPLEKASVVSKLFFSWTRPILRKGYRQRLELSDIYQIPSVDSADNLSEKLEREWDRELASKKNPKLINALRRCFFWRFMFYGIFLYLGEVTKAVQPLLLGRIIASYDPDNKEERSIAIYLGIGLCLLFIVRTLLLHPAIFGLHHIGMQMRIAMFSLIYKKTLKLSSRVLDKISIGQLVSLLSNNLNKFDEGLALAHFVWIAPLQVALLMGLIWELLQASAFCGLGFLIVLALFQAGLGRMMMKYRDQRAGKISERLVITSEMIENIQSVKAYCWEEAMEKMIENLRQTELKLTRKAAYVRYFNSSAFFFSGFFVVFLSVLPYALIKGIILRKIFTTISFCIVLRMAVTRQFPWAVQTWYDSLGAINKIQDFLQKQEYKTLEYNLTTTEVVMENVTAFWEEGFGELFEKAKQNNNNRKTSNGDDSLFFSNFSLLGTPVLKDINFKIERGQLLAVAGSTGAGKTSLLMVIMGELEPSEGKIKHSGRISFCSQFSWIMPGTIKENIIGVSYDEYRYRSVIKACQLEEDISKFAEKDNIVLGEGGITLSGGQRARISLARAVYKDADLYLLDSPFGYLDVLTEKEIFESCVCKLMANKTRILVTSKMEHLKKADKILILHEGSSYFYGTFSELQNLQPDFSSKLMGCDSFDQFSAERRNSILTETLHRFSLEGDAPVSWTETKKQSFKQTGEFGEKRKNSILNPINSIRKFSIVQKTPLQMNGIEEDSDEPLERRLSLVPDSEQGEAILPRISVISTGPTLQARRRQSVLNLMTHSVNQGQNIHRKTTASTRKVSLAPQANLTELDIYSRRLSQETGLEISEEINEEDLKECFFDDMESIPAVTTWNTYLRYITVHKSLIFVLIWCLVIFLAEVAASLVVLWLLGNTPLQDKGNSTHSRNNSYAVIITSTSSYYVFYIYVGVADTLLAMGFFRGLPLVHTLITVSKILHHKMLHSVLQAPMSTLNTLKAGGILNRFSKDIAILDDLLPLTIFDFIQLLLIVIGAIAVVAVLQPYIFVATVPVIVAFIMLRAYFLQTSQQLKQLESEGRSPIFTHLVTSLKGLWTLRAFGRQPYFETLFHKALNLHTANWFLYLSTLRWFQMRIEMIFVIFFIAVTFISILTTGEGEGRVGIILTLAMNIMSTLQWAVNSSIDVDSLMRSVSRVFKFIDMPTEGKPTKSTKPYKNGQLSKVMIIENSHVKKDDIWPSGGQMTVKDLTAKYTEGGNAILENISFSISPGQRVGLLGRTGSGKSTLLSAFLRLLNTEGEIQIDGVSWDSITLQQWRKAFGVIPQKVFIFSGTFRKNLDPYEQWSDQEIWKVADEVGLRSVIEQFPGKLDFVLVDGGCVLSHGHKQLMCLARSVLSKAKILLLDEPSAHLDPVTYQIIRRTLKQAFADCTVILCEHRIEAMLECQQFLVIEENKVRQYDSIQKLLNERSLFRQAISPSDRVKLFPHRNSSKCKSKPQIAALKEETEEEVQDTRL
Experimental: (§2) Clonal populations of Fischer rat thyroid (FRT) epithelial cells stably co-expressing human ΔF508-CFTR and the high-sensitivity halide-sensing green fluorescent analog YFP-H148Q/I152L (Galietta et al., A.S. (2001) FEBS Lett. 499, 220-224) were generated by liposome transfection and limiting dilution with Zeocin/G418 selection. More than 100 clones were evaluated for high fluorescence and ΔF508-CFTR plasma membrane targeting after growth at 27° C. for 24 hours. For screening, cells were cultured on plastic in Coon's modified F12 medium supplemented with 10% fetal bovine serum, 2 mM L-glutamine, 100 U/ml penicillin, and 100 μg/ml streptomycin, and plated on black 96-well microplates (Corning-Costar 3904) at 30,000 cells/well. For short-circuit measurements cells were cultured on Snapwell permeable supports (Corning-Costar) at 500,000 cells/insert. Human nasal epithelium cells from CF patients were cultured on Snapwell inserts and allowed to differentiate in a hormone-supplemented medium (Galietta et al., Am. J. Physiol., […]). Some measurements were done using stably transfected FRT cells expressing YFP-H148Q and wildtype- or G551D-CFTR (Galietta et al., (2001) J. Biol. Chem. 276, 19723-19728). Patch clamp experiments were done on ΔF508-CFTR-expressing FRT cells plated in 35-mm Petri dishes.
Screening was carried out using a Beckman integrated system containing a 3-meter robotic arm, CO2 incubator containing microplate carousel, plate-washer, liquid handling workstation, bar code reader, delidding station, plate sealer, and two FluoStar fluorescence plate readers (Galaxy, BMG Lab Technologies), each equipped with dual syringe pumps and HQ500/20X ([…]) excitation and HQ535/30M (535±15 nm) emission filters (Chroma). Software was written in VBA (Visual Basic for Applications) to compute baseline-subtracted fluorescence slopes (giving halide influx rates).
For assay of ΔF508-CFTR potentiator activity the incubator (27° C., 90% humidity, 5% CO2/95% air) was loaded with forty-to-sixty 96-well plates containing FRT cells. After an 18-24 hour incubation plates were washed 3 times with PBS (300 μl/wash) leaving 50 μl PBS. 10 μl of PBS containing 120 μM forskolin was added, and after 5 min test compounds (0.6 μl of 0.25 mM DMSO solution) were added to each well to give 2.5 μM final compound concentrations. After 15 min, 96-well plates were transferred to a plate reader for fluorescence assay. Each well was assayed individually for I^− influx by recording fluorescence continuously (200 ms per point) for 2 seconds (baseline) and then for 12 seconds after rapid (<1 s) addition of 160 μL of isosmolar PBS in which 137 mM Cl^− was replaced by I^−. I^− influx rates were computed from initial fluorescence versus time-curve slopes (determined by 3rd order polynomial regression) after normalization for total fluorescence (background subtracted initial fluorescence). All compound plates contained negative control (DMSO vehicle alone) and positive controls (genistein, 5 μM and 50 μM). Assay analysis indicated a Z′-factor of >0.7 (Zhang et al., J. Biomol. Screen 4:67-73 (1999)).
The high-throughput screen was designed to identify compounds that activated ΔF508-CFTR when expressed at the cell plasma membrane. FRT epithelial cells co-expressing ΔF508-CFTR and a high sensitivity yellow fluorescent protein-based halide indicator were incubated at 27° C. for 24 h to permit ΔF508-CFTR plasma membrane targeting (FIG. 1, panel A). After washing, forskolin (20 μM) and test compounds (2.5 μM) were added to individual wells of 96-well plates. The I^− influx assay was carried out ˜15 min later by measurement of the time course of decreasing YFP fluorescence after creation of an inwardly-directed I^− gradient. A high concentration of forskolin was used to identify ΔF508-CFTR potentiators that may interact directly with ΔF508-CFTR rather than alter cAMP concentration. […]

ΔF508-CFTR [3] = target: T1, ΔF508-CFTR; test: Short-circuit (apical membrane Cl−) current in FRT cells expressing ΔF508-CFTR, Ussing chamber; assay type: cell-based; design: expressed in transfected cells; settings: for EC50 / maximal current compared with genistein: after forskolin 20 μM; for EC50: 27° C. 24 hours, read-out: potency for ΔF508-CFTR currents; for maximal current compared with genistein: genistein 50 μM; for potentiation of the response of ΔF508-CFTR to forskolin: low concentrations of forskolin, potentiator 100 nM
Experimental: as §2
Using chamber experiments were performed 7-9 days after plating ΔF508-CFTR expressing FRT cells on Snapwell inserts. The basolateral solution contained (in mM): 130 NaCl, 2.7 KCl, 1.5 KH2PO4, 1 CaCl2, 0.5 MgCl2, 10 glucose, 10 Na-Hepes (pH 7.3). In the apical bathing solution 65 mM NaCl was replaced by Na gluconate, and CaCl2 was increased to 2 mM. Solutions were bubbled with air and maintained at 37° C. The basolateral membrane was permeabilized with 250 μg/ml amphotericin B. The hemichambers were connected to a DVC-1000 voltage clamp (World Precision Instruments) via Ag/AgCl electrodes and 1 M KCl agar bridges for recording short-circuit current.
Experiments were done after basolateral membrane permeabilization and in the presence of a transepithelial Cl^− gradient, so that short-circuit current represents apical membrane Cl^− current. […] Cells were plated on a permeable support to generate a polarized epithelium, cultured for 5-7 days, and then incubated at 27° C. for 24 hours. Transepithelial chloride current was measured in a modified Ussing chamber in the presence of a chloride gradient.

ΔF508-CFTR [4] = target: T1, ΔF508-CFTR; test: Short-circuit current in primary nasal epithelial cells from ΔF508 homozygous subject; assay type: cell-based; design: expressed in transfected cells; settings: 27° C. 20-24 hours, amiloride, forskolin 20 μM
Experimental: For short-circuit measurements cells were cultured on Snapwell permeable supports (Corning-Costar) at 500,000 cells/insert. […] Patch clamp experiments were done on ΔF508-CFTR-expressing FRT cells plated in 35-mm Petri dishes.
Human nasal epithelial cells from ΔF508 homozygote subjects were cultured as polarized monolayers on permeable supports for transepithelial short-circuit current measurement.

Row | Compound | cAMP level (intracellular cAMP) | effect on magnitude or kinetics of calcium-activated Cl− current [1] | EC50 (ΔF508-CFTR [2]; phenylglycine containing compounds) | EC50 (ΔF508-CFTR [3]) | maximal current compared with genistein (ΔF508-CFTR [3]) | potentiation of the response of ΔF508-CFTR to forskolin (ΔF508-CFTR [3]) | activation of ΔF508-CFTR current (ΔF508-CFTR [4]) | EC50 (ΔF508-CFTR [2]; sulfonamide containing compounds)
1 | CC(C)c1ccc(NC(=O)C(c2ccccc2)N(C)C(=O)Cc2c[nH]c3ccccc23)cc1 (centres unmarked) [Compound P-1, 2-[(2-1H-Indol-3-yl-acetyl)-methyl-amino]-N-(4-isopropyl-phenyl)-2-phenyl-acetamide] | did not increase cAMP above the level induced by forskolin | no effect | 0.3 µM | < 0.1 µM | comparable to or greater than that produced by 50 μM genistein | significant increase in current induced by low concentrations of forskolin | significant activation | –
2 | C=CCNC(=O)c1c[nH]c2ccc(S(=O)(=O)N(C)c3ccccc3OCC)cc2c1=O [Compound S-1, 6-[(2-Ethoxy-phenyl)-methyl-sulfamoyl]-4-oxo-1,4-dihydro-quinoline-3-carboxylic acid allylamide] | did not increase cAMP above the level induced by forskolin | no effect | – | < 0.1 µM | comparable to or greater than that produced by 50 μM genistein | significant increase in current induced by low concentrations of forskolin | significant activation | 0.3 µM
